Measurements reported in ChEMBL document CHEMBL5143747, “Discovery and Optimization of Triazolopyrimidinone Derivatives as Selective NLRP3 Inflammasome Inhibitors” (ACS Med Chem Lett, 2022).
In brackets after ≈: the same amount, converted by molar mass.

Assays:
[1] = target: T1, NACHT, LRR and PYD domains-containing protein 3 (Homo sapiens, UniProt Q96P20); assay: Inhibition of NLRP3 inflammasome in LPS-pretreated PBMC (unknown origin) assessed as reduction in IL-1beta release pretreated for 30 mins followed by ATP stimulated and measured after 1 hr by ELISA; assay type: cell-based
[2] = Thermodynamic solubility of compound in pH 7.4 phosphate buffer incubated for 24 hrs under shaking condition by UPLC analysis; assay type: physicochemical; conditions: read-out: Therm_solubility
[3] = Protein binding in mouse plasma; assay type: ADME, cell-free; conditions: read-out: PPB (converted)
[4] = Protein binding in human plasma; assay type: ADME, cell-free; conditions: read-out: PPB (converted)
[5] = Permeability of compound in pH 7.4 phosphate buffered saline at 10 uM measured after 4 hrs by PAMPA; assay type: ADME; conditions: read-out: permeability
[6] = Protein binding in rat plasma; assay type: ADME, cell-free; conditions: read-out: PPB (converted)
[7] = Inhibition of LPS-stimulated IL-6 release in human PBMC measured after 4 hrs by ELISA; assay type: toxicity, cell-based
[8] = Inhibition of LPS-stimulated TNF-alpha release in human PBMC measured after 4 hrs by ELISA; assay type: toxicity, cell-based
[9] = target: T1, NACHT, LRR and PYD domains-containing protein 3; assay: Inhibition of NLRP3 inflammasome in LPS-pretreated PBMC (unknown origin) assessed as reduction in IL-1beta release at 40 uM pretreated for 30 mins followed by ATP stimulated and measured after 1 hr by ELISA relative to control; assay type: cell-based; conditions: time 90.0 min
[10] = target: T1, NACHT, LRR and PYD domains-containing protein 3; assay: Inhibition of NLRP3 inflammasome in LPS-pretreated human whole blood assessed as reduction in IL-1beta release pretreated for 30 mins followed by ATP stimulated and measured after 1 hr by HTRF assay; assay type: tissue-based
[11] = target: T1, NACHT, LRR and PYD domains-containing protein 3; assay: Inhibition of NLRP3 inflammasome in LPS-pretreated human THP1-ASC-GFP cells assessed as reduction in speck positive cells measured after 30 mins in presence of caspase inhibitor zVAD-FMK by Hoechst 33342 staining based confocal microscopy; assay type: cell-based

T1 sequence (Q96P20 whole entry, the tested form may be a part): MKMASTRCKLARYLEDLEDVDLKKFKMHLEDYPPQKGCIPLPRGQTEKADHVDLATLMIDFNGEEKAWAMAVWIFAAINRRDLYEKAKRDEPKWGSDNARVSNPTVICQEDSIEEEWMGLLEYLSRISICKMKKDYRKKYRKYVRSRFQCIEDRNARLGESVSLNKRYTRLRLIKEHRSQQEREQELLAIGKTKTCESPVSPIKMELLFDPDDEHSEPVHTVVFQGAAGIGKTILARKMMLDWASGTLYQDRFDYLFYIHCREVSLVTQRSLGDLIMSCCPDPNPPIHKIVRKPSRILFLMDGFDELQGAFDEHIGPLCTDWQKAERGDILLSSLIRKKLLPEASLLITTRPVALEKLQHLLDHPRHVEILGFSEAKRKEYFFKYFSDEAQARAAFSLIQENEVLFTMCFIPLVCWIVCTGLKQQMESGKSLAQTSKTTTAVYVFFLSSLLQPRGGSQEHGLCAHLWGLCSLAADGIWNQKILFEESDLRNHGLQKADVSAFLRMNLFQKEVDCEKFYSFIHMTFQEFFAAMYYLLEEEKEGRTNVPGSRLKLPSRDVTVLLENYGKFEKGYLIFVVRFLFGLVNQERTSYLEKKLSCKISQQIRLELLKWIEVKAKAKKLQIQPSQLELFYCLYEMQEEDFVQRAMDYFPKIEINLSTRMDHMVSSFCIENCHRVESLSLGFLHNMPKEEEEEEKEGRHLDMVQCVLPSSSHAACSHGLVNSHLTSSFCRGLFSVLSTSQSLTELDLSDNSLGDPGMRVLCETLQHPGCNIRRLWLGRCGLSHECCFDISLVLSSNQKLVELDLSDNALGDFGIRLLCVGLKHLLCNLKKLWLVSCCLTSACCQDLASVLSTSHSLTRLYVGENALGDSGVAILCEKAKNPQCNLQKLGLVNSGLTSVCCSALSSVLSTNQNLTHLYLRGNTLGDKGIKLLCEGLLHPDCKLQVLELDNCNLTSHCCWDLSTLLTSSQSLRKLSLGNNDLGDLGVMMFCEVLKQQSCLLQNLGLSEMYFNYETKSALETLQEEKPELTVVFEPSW

Compound	IC50 ([1]; read-out: IC50) [µM]	also measured
O=c1cc(C2CCCNC2)[nH]c2nc(Nc3c4c(cc5c3CCC5)CCC4)nn12 (stereo not drawn)	> 40	
S=c1cc(Cc2ccccn2)[nH]c2nc(Nc3c4c(cc5c3CCC5)CCC4)nn12		solubility thermodynamic at 24 h [2]: 1500 µM (≈ 622 µg/mL); fraction unbound [3]: 0.004; fraction unbound [4]: 0.019; Papp at 4 h, 10 µM [5]: < 0.018 ×10⁻⁶ cm/s; fraction unbound [6]: 0.015; IC50 [7]: > 40 µM; IC50 [8]: > 40 µM
O=c1cc(Cc2cccnc2)[nH]c2nc(Nc3c4c(cc5c3CCC5)CCC4)nn12	3.4	
O=c1cc(Cc2ccncc2)[nH]c2nc(Nc3c4c(cc5c3CCC5)CCC4)nn12	5.8	
Cc1cc2[nH]c(Nc3c4c(cc5c3CCC5)CCC4)nn2c(=O)n1	> 40	
N#Cc1cccc(Cc2cc(=O)n3nc(Nc4c5c(cc6c4CCC6)CCC5)nc3[nH]2)c1	2.4	
Cn1cc(Cc2cc(=O)n3nc(Nc4c5c(cc6c4CCC6)CCC5)nc3[nH]2)cn1	4.9	
O=c1cc(CC2COCCN2)[nH]c2nc(Nc3c4c(cc5c3CCC5)CCC4)nn12 (stereo not drawn)	5.4	
Cc1cc(=O)n2nc(Nc3c4c(cc5c3CCC5)CCC4)cc2[nH]1		inhibition [9]: 57%
O=c1cc(Cc2ccccc2F)[nH]c2nc(Nc3c4c(cc5c3CCC5)CCC4)nn12	3.7	
Cn1nccc1Cc1cc(=O)n2nc(Nc3c4c(cc5c3CCC5)CCC4)nc2[nH]1	2	
O=c1cc[nH]c2nc(Nc3c4c(cc5c3CCC5)CCC4)nn12		inhibition [9]: 77%
Cc1c[nH]c2nc(Nc3c4c(cc5c3CCC5)CCC4)nn2c1=O	> 40	
CN1CCOC(Cc2cc(=O)n3nc(Nc4c5c(cc6c4CCC6)CCC5)nc3[nH]2)C1 (stereo not drawn)	8.8	
Cc1ccn2nc(Nc3c4c(cc5c3CCC5)CCC4)nc2n1	> 40	
COc1ccc(Cc2cc(=O)n3nc(Nc4c5c(cc6c4CCC6)CCC5)nc3[nH]2)cc1	3	
Cc1cc(=O)n2nc(Nc3c4c(cc5c3CCC5)CCC4)nc2n1C	> 40	
O=c1cc(Cc2ncccn2)[nH]c2nc(Nc3c4c(cc5c3CCC5)CCC4)nn12	1.7	
Cc1ccccc1Cc1cc(=O)n2nc(Nc3c4c(cc5c3CCC5)CCC4)nc2[nH]1	4	
COc1c(C)[nH]c2nc(Nc3c4c(cc5c3CCC5)CCC4)nn2c1=O	> 40	
O=c1cc(CC2CCOC2)[nH]c2nc(Nc3c4c(cc5c3CCC5)CCC4)nn12 (stereo not drawn)	5	
O=c1cc(CC2CCCCO2)[nH]c2nc(Nc3c4c(cc5c3CCC5)CCC4)nn12 (stereo not drawn)	1.9	solubility thermodynamic at 24 h [2]: 24 µM (≈ 9.73 µg/mL); fraction unbound [3]: 0.002; fraction unbound [4]: 0.001; Papp at 4 h, 10 µM [5]: 0.038 ×10⁻⁶ cm/s; IC50 [7]: > 40 µM; IC50 [8]: > 40 µM; IC50 [10]: > 40 µM; IC50 [11]: 1.3 µM
COCCc1cc(=O)n2nc(Nc3c4c(cc5c3CCC5)CCC4)nc2[nH]1	2.8	
N#Cc1ccccc1Cc1cc(=O)n2nc(Nc3c4c(cc5c3CCC5)CCC4)nc2[nH]1		IC50 ([1]; pbmc): Nd(Insoluble)
Cc1[nH]c2nc(Nc3c4c(cc5c3CCC5)CCC4)nn2c(=O)c1Cc1ccccc1	> 40	

Compound	IC50 ([1]; read-out: IC50) [µM]	also measured
CN1CCC(c2cc(=O)n3nc(Nc4c5c(cc6c4CCC6)CCC5)nc3[nH]2)CC1	> 40	
Cn1cnc(Cc2cc(=O)n3nc(Nc4c5c(cc6c4CCC6)CCC5)nc3[nH]2)c1	5.5	
CN1CCCC(c2cc(=O)n3nc(Nc4c5c(cc6c4CCC6)CCC5)nc3[nH]2)C1 (stereo not drawn)	4.9	
O=c1cc(CC2CCOCC2)[nH]c2nc(Nc3c4c(cc5c3CCC5)CCC4)nn12	3.4	
O=c1cc(Cc2ccc(Cl)cc2)[nH]c2nc(Nc3c4c(cc5c3CCC5)CCC4)nn12	10	
O=c1cc(Cc2ccccn2)[nH]c2nc(Nc3c4c(cc5c3CCC5)CCC4)nn12		solubility thermodynamic at 24 h [2]: 2.4 µM (≈ 0.956 µg/mL); fraction unbound [4]: 0.002; Papp at 4 h, 10 µM [5]: < 0.018 ×10⁻⁶ cm/s; IC50 [7]: > 40 µM; IC50 [8]: > 40 µM
Cc1[nH]c2nc(Nc3c4c(cc5c3CCC5)CCC4)nn2c(=O)c1C#N	> 40	
N#Cc1ccc(Cc2cc(=O)n3nc(Nc4c5c(cc6c4CCC6)CCC5)nc3[nH]2)cc1	1.6	
CN1CCN(Cc2cc(=O)n3nc(Nc4c5c(cc6c4CCC6)CCC5)nc3[nH]2)CC1	> 40	
O=c1cc(Cc2ccccc2Cl)[nH]c2nc(Nc3c4c(cc5c3CCC5)CCC4)nn12		IC50 ([1]; pbmc): Nd(Insoluble)
O=c1cc(Cc2ccccc2)[nH]c2nc(Nc3c4c(cc5c3CCC5)CCC4)nn12	1.8	
O=c1cc(CN2CCOCC2)[nH]c2nc(Nc3c4c(cc5c3CCC5)CCC4)nn12	7.8	
O=c1cc(CCc2ccccc2)[nH]c2nc(Nc3c4c(cc5c3CCC5)CCC4)nn12	3.4	
Cc1cc(=O)n2nc(Nc3c4c(cc5c3CCC5)CCC4)nc2[nH]1		inhibition [9]: 70%
O=c1cc(Cc2cccc(Cl)c2)[nH]c2nc(Nc3c4c(cc5c3CCC5)CCC4)nn12	2.8	
Cc1[nH]c2nc(Nc3c4c(cc5c3CCC5)CCC4)nn2c(=O)c1C	> 40	
CCc1cc(=O)n2nc(Nc3c4c(cc5c3CCC5)CCC4)nc2[nH]1	8.7	
Cn1ccc(Cc2cc(=O)n3nc(Nc4c5c(cc6c4CCC6)CCC5)nc3[nH]2)n1	1.8	
O=c1cc(C2CCNCC2)[nH]c2nc(Nc3c4c(cc5c3CCC5)CCC4)nn12	> 40	
O=c1cc(CC2CCCCC2)[nH]c2nc(Nc3c4c(cc5c3CCC5)CCC4)nn12	4.5	
Cn1cncc1Cc1cc(=O)n2nc(Nc3c4c(cc5c3CCC5)CCC4)nc2[nH]1	16	
CN1CCOCC1Cc1cc(=O)n2nc(Nc3c4c(cc5c3CCC5)CCC4)nc2[nH]1 (stereo not drawn)	6	
O=c1cc(C2CCOCC2)[nH]c2nc(Nc3c4c(cc5c3CCC5)CCC4)nn12	6.3	
S=c1cc(CC2CCCCO2)[nH]c2nc(Nc3c4c(cc5c3CCC5)CCC4)nn12 (stereo not drawn)		solubility thermodynamic at 24 h [2]: 730 µM (≈ 308 µg/mL); fraction unbound [3]: 0.004; fraction unbound [4]: 0.001; Papp at 4 h, 10 µM [5]: < 0.0004 ×10⁻⁶ cm/s; fraction unbound [6]: 0.002; IC50 [7]: > 20 µM; IC50 [8]: > 20 µM
